# Reference: US20130035232A1, “INDUCTION AND STABILIZATION OF ENZYMATIC ACTIVITY IN MICROORGANISMS” (GEORGIA STATE UNIVERSITY RESEARCH FOUNDATION, INC., priority 2010, published 2013)
# Assays:
# [1] = tested on: Pseudomonas chloroaphis ATCC 13985; experiment: Growth on supplemented YEMEA (visual grade); type: cell-based; design: key: (−) meaning no detectable growth; (+/−) meaning scant growth; (+) meaning little growth; (++) meaning good growth; (+++) meaning very good growth; (++++) meaning excellent growth; conditions: 26 °C, 7.5 g/L urea, 10 ppm cobalt, supplement 3.8 mM
# Protocol: (§1) The relative growth of various nitrile hydratase producing microorganisms was evaluated. All strains were grown on YEMEA medium containing 7.5 g/L of urea and 10 ppm cobalt (provided as cobalt chloride) supplemented with asparagine (ASN), glutamine (GLN), or both asparagine and glutamine. The asparagine and glutamine were added at a concentration of 3.8 mM. Growth temperature was in the range of 26° C. to 30° C. Growth was evaluated by visual inspection and graded on the following scale: (−) meaning no detectable growth; (+/−) meaning scant growth; (+) meaning little growth; (++) meaning good growth; (+++) meaning very good growth; and (++++) meaning excellent growth.
# [2] = tested on: Pseudomonas chloroaphis ATCC 43051; experiment: Growth on supplemented YEMEA (visual grade); type: cell-based; design: key: (−) meaning no detectable growth; (+/−) meaning scant growth; (+) meaning little growth; (++) meaning good growth; (+++) meaning very good growth; (++++) meaning excellent growth; conditions: 30 °C, 7.5 g/L urea, 10 ppm cobalt, supplement 3.8 mM
# Protocol: as §1
# [3] = tested on: Rhodococcus rhodochrous DAP 96622 ATCC 55898; experiment: Growth on supplemented YEMEA (visual grade); type: cell-based; design: key: (−) meaning no detectable growth; (+/−) meaning scant growth; (+) meaning little growth; (++) meaning good growth; (+++) meaning very good growth; (++++) meaning excellent growth; conditions: 26 °C, 7.5 g/L urea, 10 ppm cobalt, supplement 3.8 mM
# Protocol: as §1
# [4] = tested on: Rhodococcus sp. DAP 96253 ATCC 55899; experiment: Growth on supplemented YEMEA (visual grade); type: cell-based; design: key: (−) meaning no detectable growth; (+/−) meaning scant growth; (+) meaning little growth; (++) meaning good growth; (+++) meaning very good growth; (++++) meaning excellent growth; conditions: 30 °C, 7.5 g/L urea, 10 ppm cobalt, supplement 3.8 mM
# Protocol: as §1
# [5] = tested on: Rhodococcus erythropolis ATCC 47072; experiment: Growth on supplemented YEMEA (visual grade); type: cell-based; design: key: (−) meaning no detectable growth; (+/−) meaning scant growth; (+) meaning little growth; (++) meaning good growth; (+++) meaning very good growth; (++++) meaning excellent growth; conditions: 26 °C, 7.5 g/L urea, 10 ppm cobalt, supplement 3.8 mM
# Protocol: as §1
# [6] = tested on: Brevibacterium ketoglutaricum ATCC 21533; experiment: Growth on supplemented YEMEA (visual grade); type: cell-based; design: key: (−) meaning no detectable growth; (+/−) meaning scant growth; (+) meaning little growth; (++) meaning good growth; (+++) meaning very good growth; (++++) meaning excellent growth; conditions: 30 °C, 7.5 g/L urea, 10 ppm cobalt, supplement 3.8 mM
# Protocol: as §1
# [7] = tested on: asparaginase I; experiment: 20 liter fermentation with asparagine feed: asparaginase I; type: cell-based, Rhodococcus sp. DAP 96253; conditions: end of 20 liter fermentation; asparagine 0.15M at 1000 μl/min from t=10 hour; FIG. 5
# Protocol: Rhodococcus sp. DAP 96253 were grown using biphasic medium as the source of inoculum for a 20 liter fermentation. The supplemental addition of medium/carbohydrate (either YEMEA, dextrose or maltose) was made to the modified R2A medium, containing cottonseed hydrolysate substituted for the Proteos Peptone 3 (PP3). Asparagine (0.15M solution) was added at a continuous rate of 1000 μl/min beginning at t=10 hour. At the end of the fermentation run, 159 units per milligram cell dry weight of acrylonitrile specific nitrile hydratase, 22 units of amidase per milligram cell dry weight, and 16 g/l cell packed wet weight were produced.
# [8] = tested on: amidase; experiment: Amidase production on supplemented medium; type: cell-based; conditions: YEMEA, urea, cobalt, supplement 3.8 mM
# Protocol: The induction of nitrile hydratase production and amidase production in various nitrile hydratase producing microorganisms was evaluated. All strains were grown on YEMEA medium containing 7.5 g/L of urea and 10 ppm cobalt (provided as cobalt chloride) supplemented with asparagine (ASN), glutamine (GLN), or both asparagine and glutamine. The asparagine and glutamine were added at a concentration of 3.8 mM. As a comparative, enzyme production with no supplementation was also tested. Growth temperature was in the range of 26° C. to 30° C.
# [9] = tested on: asparaginase I; experiment: Effect of inducer and media composition on asparaginase I production; type: cell-based, Rhodococcus sp. DAP 96253; conditions: Rhodococcus sp. DAP 96253, inducer 1000 ppm
# Protocol: Testing was performed to evaluate the effect on asparaginase I activity based upon the inducer used. In particular, testing was performed using asparagine, glutamine, succinonitrile, and isovaleronitrile as inducers (all added at 1000 ppm each).
# [10] = tested on: nitrile hydratase; experiment: Nitrile hydratase induction by inducers (Example 1); type: cell-based, Rhodococcus sp., strain DAP 96253; conditions: inducer 1000 ppm
# Protocol: The induction of nitrile hydratase activity and amidase activity in Rhodococcus sp., strain DAP 96253, was evaluated using multiple types of inducers (1000 ppm). Three different samples were cultured in YEMEA medium containing 10 ppm cobalt and 7.5 g/L urea and supplemented with acrylonitrile, asparagine, or glutamine. The specific nitrile hydratase activity and the specific amidase activity in each sample was evaluated, and the results are provided below in Table 3, with activities provided in units/mg cdw (cell dry weight). One unit of nitrile hydratase activity relates to the ability to convert 1 μmol of acrylonitrile to its corresponding amide per minute, per milligram of cells (dry weight) at a pH of 7.0 and a temperature of 30° C. One unit of amidase activity relates to the ability to convert 1 μmol of acrylamide to its corresponding acid per minute, per milligram of cells (dry weight) pH of 7.0 and a temperature of 30° C.
# [11] = tested on: asparaginase I; experiment: Asparaginase I production on supplemented medium; type: cell-based; conditions: YEMEA, 7.5 g/L urea, 10 ppm cobalt
# Protocol: The induction of asparaginase I production in various nitrile hydratase producing microorganisms was evaluated. All strains were grown on YEMEA medium containing 7.5 g/L of urea and 10 ppm cobalt (provided as cobalt chloride) supplemented with asparagine (ASN), glutamine (GLN), or both asparagine and glutamine. The asparagine and glutamine were added at a concentration of 3.8 mM. As a comparative, enzyme production was also evaluated with supplementation with acrylonitrile (AN), acrylamide (AMD) or acrylonitrile and acrylamide. Growth temperature was in the range of 26° C. to 30° C.
# [12] = Brevibacterium ketoglutaricum ATCC 21533, 30 °C
# [13] = Pseudomonas chloroaphis ATCC 13985, 26 °C
# [14] = Pseudomonas chloroaphis ATCC 43051, 30 °C
# [15] = Rhodococcus erythropolis ATCC 47072, 26 °C
# [16] = Rhodococcus rhodochrous DAP 96622 ATCC 55898, 26 °C
# [17] = Rhodococcus sp. DAP 96253 ATCC 55899, 30 °C
compound,measurement,setting,value
"NC(=O)C[C@H](N)C(=O)O [Asparagine, asparagine]",Growth,[1],+
same,Growth,[2],+
same,Growth,[3],++++
same,Growth,[4],++++
same,Growth,[5],++
same,Growth,[6],+
same,asparaginase I produced,[7],16 units per milligram cell dry weight
same,Amidase Level Based on Growth Medium Supplementation,[8]; [12],0 Units/mg cdw
same,Amidase Level Based on Growth Medium Supplementation,[8]; [13],14 Units/mg cdw
same,Amidase Level Based on Growth Medium Supplementation,[8]; [14],0 Units/mg cdw
same,Amidase Level Based on Growth Medium Supplementation,[8]; [15],9 Units/mg cdw
same,Amidase Level Based on Growth Medium Supplementation,[8]; [16],10 Units/mg cdw
same,Amidase Level Based on Growth Medium Supplementation,[8]; [17],13 Units/mg cdw
same,"Asparaginase I levels, YEMEA - Glucose With Cobalt","[9]; YEMEA - Glucose, with cobalt",6.5 units/mg cell dry weight
same,"Asparaginase I levels, YEMEA - Glucose Without Cobalt","[9]; YEMEA - Glucose, without cobalt",5.3 units/mg cell dry weight
same,"Asparaginase I levels, YEMEA - Maltose With Cobalt","[9]; YEMEA - Maltose, with cobalt",24.6 units/mg cell dry weight
same,"Asparaginase I levels, YEMEA - Maltose Without Cobalt","[9]; YEMEA - Maltose, without cobalt",8.7 units/mg cell dry weight
same,Nitrile Hydratase Activity,"[10]; Rhodococcus sp. DAP 96253, YEMEA, 10 ppm cobalt, 7.5 g/L urea",170.50 Units/mg cdw
same,nitrile hydratase induction compared with acrylonitrile,[10],exceeds the ability of acrylonitrile to induce such activity
same,Asparaginase I Level Based on Growth Medium Supplementation,[11]; [12],19.1 Units/mg cdw
same,Asparaginase I Level Based on Growth Medium Supplementation,[11]; [13],0 Units/mg cdw
same,Asparaginase I Level Based on Growth Medium Supplementation,[11]; [14],18.4 Units/mg cdw
same,Asparaginase I Level Based on Growth Medium Supplementation,[11]; [15],1 Units/mg cdw
same,Asparaginase I Level Based on Growth Medium Supplementation,[11]; [16],12.3 Units/mg cdw
same,Asparaginase I Level Based on Growth Medium Supplementation,[11]; [17],12.5 Units/mg cdw
